Values joined by “and” are separate entries in the source; they are usually repeats but may differ in a detail not shown here. Identical values can stand only once.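 Assay format: 96-well plates, 48-hour exposure. The concentration for 50% growth inhibition is given as GI50. TGI is the concentration that stops growth completely.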
Tests used:
Test in all cases: inhibition of tumour cell growth, NCI panel, 48 h
[1] = tested on: OVCAR-3 ovarian
[2] = tested on: RXF 393 renal
[3] = tested on: CAKI-1 renal
[4] = tested on: TK-10 renal
[5] = tested on: SK-MEL-5 melanoma
[6] = tested on: UACC-257 melanoma
[7] = tested on: HCT-116 colon
[8] = tested on: OVCAR-5 ovarian
[9] = tested on: SR leukemia
[10] = tested on: T-47D breast

SMILES	TGI [1]	TGI [2]	TGI [3]	TGI [4]	TGI [5]	TGI [6]	TGI [7]	GI50 [8]	TGI [8]	GI50 [2]	GI50 [3]	GI50 [9]	TGI [9]	GI50 [5]	GI50 [1]	GI50 [4]	GI50 [6]	GI50 [7]	GI50 [10]	TGI [10]
CCN(CC)c1ccc(N=C2C=C(Cl)C(=O)c3ncccc32)c(C)c1	5.04 µM	17.5 µM	12 µM	29.2 µM	11.3 µM	7.29 µM	11.6 µM													
CC1[C@@H]2CC=C3[C@H]4CCC5Cc6nc7c(nc6C[C@@]5(C)C4(O)CC(=O)[C@]32CO[C@]12OC(C)(C)CC2O)CC1CC[C@@H]2C3=C[C@H]4O[C@@]5(O[C@@](C)(CO)C[C@@H]5O)C(C)[C@@]4(O)[C@]3(C)[C@@H](O)CC2[C@]1(C)C7 (stereo partly drawn)	> 3.6 µM	0.000371 µM and 0.00217 µM	0.365 µM and > 3.6 µM	0.307 µM			0.105 µM and 0.846 µM	0.0142 µM and 0.00734 µM	0.426 µM and 0.118 µM	0.00036 µM	0.000573 µM and 0.00463 µM	0.000155 µM	0.0821 µM	0.000717 µM and 0.00638 µM						
CC(C)C(=O)[O-].CC(C)C(=O)[O-].N.N.N.N.[Co+3].[O-][Cl+3]([O-])([O-])[O-]	> 100 µM			> 100 µM	> 100 µM	> 100 µM	> 100 µM	> 100 µM	> 100 µM					> 100 µM	> 100 µM	> 100 µM	> 100 µM	> 100 µM		
CC(=O)[O-].[Zn].c1ccc(/C(=N\Nc2ccccn2)c2ccccn2)cc1			6.33 µM	3.34 µM	1.59 µM	2.08 µM	1.26 µM							0.447 µM						
CCOC(=O)c1ccc(N2C(=O)Cc3ccccc3C2=O)cc1	> 100 µM	> 100 µM		> 100 µM	> 100 µM	> 100 µM	> 100 µM		> 100 µM				> 100 µM							
CCOC(=O)C1=C(Nc2ccc(Br)cc2)OC/C1=N\NC(=O)c1ccccc1O	77.7 µM	14.2 µM	> 71.1 µM	> 100 µM	> 100 µM	> 95.3 µM	> 62 µM		> 100 µM				18.4 µM							
CC(C)CC12CC3CCC(CNC1=O)C32C (stereo not drawn)	> 100 µM	> 100 µM	> 100 µM	> 100 µM	> 100 µM	> 100 µM	> 100 µM		> 100 µM				> 100 µM							
CCn1c(=O)c2ccccc2n2c(=O)c3cc4ccccc4cc3nc12	> 100 µM	37 µM	> 100 µM	> 100 µM	> 100 µM	> 100 µM	> 100 µM		> 100 µM											
S=c1sc2cscc2s1	54.9 µM	51.5 µM	31.4 µM	40.2 µM	70.6 µM	44.7 µM	37.7 µM		> 100 µM				> 100 µM							
CS/C(c1ccccc1)=[N+](\[O-])Cc1ccccc1	> 100 µM	> 100 µM	> 100 µM	> 100 µM	> 100 µM	> 100 µM	> 100 µM		> 100 µM				43.3 µM							
CC(=O)/C=C1\CC(=O)Nc2ccccc2N1		> 100 µM	> 100 µM	> 100 µM	> 100 µM	> 100 µM	> 100 µM		> 100 µM				> 100 µM							
COc1ccc2c(c1)c(-c1ccc(-c3cn(C)c4ccc(OC)cc34)[nH]1)cn2C		3.52 µM	11.2 µM	10.7 µM	14.4 µM	38.7 µM	12.7 µM	3.11 µM	11 µM	1.4 µM	3.36 µM	1.31 µM	4.01 µM	4.2 µM		3.56 µM	13.7 µM	3.04 µM		
O=C(NC1C2CC3CC(C2)CC1C3)/C(Cl)=C1/Sc2ccccc2NC1=O (stereo not drawn)	> 100 µM	> 100 µM	> 100 µM	> 100 µM	> 100 µM	> 100 µM	> 100 µM		> 100 µM				> 100 µM							
OCC(O)C(O)C(O)c1nn(-c2ccccc2)c2nc3cc(Cl)c(Cl)cc3nc12 (stereo not drawn)	> 100 µM	47.7 µM	56.7 µM	> 100 µM		> 100 µM	> 100 µM		83.6 µM				> 100 µM							
Cc1ccc(C2=C(c3ccc(C)cc3)C(c3ccc(C)cc3)=C(c3ccc(C)cc3)C2=O)cc1		> 100 µM		> 100 µM	> 100 µM	> 100 µM	> 100 µM		> 100 µM				> 100 µM							
Clc1ccc(CNc2nccc(-c3cnn4ncccc34)n2)cc1	21.6 µM	10.2 µM	> 18.8 µM	> 23.5 µM	> 25 µM	16.5 µM	> 25 µM	7.66 µM	24.7 µM	4.88 µM	5.62 µM			5.4 µM	7.32 µM	8.71 µM	6.43 µM	7.92 µM	5.26 µM	> 25 µM
N#C/C(=C\c1c(-c2ccccc2)[nH]c2ccccc12)C(=O)c1ccccc1	5.75 µM	> 100 µM	> 100 µM	86.9 µM		> 100 µM	> 100 µM	> 100 µM	> 100 µM	9.61 µM	2.45 µM				2.43 µM	11.1 µM	10.9 µM	5.29 µM	5.27 µM	> 100 µM
Clc1cc(-c2ccccc2)nc2ccccc12	> 100 µM	> 100 µM	> 100 µM	71.6 µM	33 µM	> 100 µM	> 100 µM		> 100 µM											> 100 µM
CCOc1nccc2c1nc(-c1nonc1N)n2CC	> 25 µM	> 25 µM	> 25 µM	> 25 µM	> 25 µM	> 25 µM	> 25 µM	> 25 µM	> 25 µM	> 25 µM	> 25 µM			> 25 µM	> 25 µM	> 25 µM	> 25 µM	> 25 µM	> 25 µM	> 25 µM
Cc1ccccc1C(=O)Oc1ccc(OCc2ccccc2)cc1	> 100 µM	> 100 µM		> 100 µM	> 100 µM	> 100 µM	> 100 µM		> 100 µM				68 µM							

SMILES	TGI [1]	TGI [2]	TGI [3]	TGI [4]	TGI [5]	TGI [6]	TGI [7]	GI50 [8]	TGI [8]	GI50 [2]	GI50 [3]	GI50 [9]	TGI [9]	GI50 [5]	GI50 [1]	GI50 [4]	GI50 [6]	GI50 [7]	GI50 [10]	TGI [10]
CC1(C(=O)O)CCOc2ccccc21 (stereo not drawn)	> 100 µM	> 100 µM	> 100 µM	> 100 µM	> 100 µM	> 100 µM	> 100 µM		> 100 µM				> 100 µM							
COc1ccc(-c2ccc(-c3ccc(C(=N)N)cn3)o2)cc1Cl	4.79 µM	3.07 µM	19.8 µM	9.47 µM	2.97 µM	4.85 µM		1.74 µM	3.38 µM	1.61 µM	6.57 µM			1.6 µM	2.24 µM	3.19 µM	2.35 µM			
O=C1C(=O)N(c2nccs2)C(=O)C(=O)C1c1nc2ccccc2s1	> 100 µM	> 100 µM	> 100 µM	> 100 µM		> 100 µM	> 100 µM		> 100 µM											
O=C(Nc1ccc(Br)cc1)C(=O)C(C(=O)c1ccccc1F)C1OC(=O)c2ccccc21 (stereo not drawn)	> 100 µM		94.2 µM	> 100 µM	87.1 µM	> 100 µM	35.6 µM		> 100 µM											
COc1cc(F)c(/C=C/c2cc(/C=C/c3cc(OC)c(OC)cc3F)n(-c3cc(F)cc(F)c3)n2)cc1OC	6.37 µM	18.4 µM	34.4 µM	28.3 µM	9.38 µM	3.28 µM	13.1 µM	2.96 µM	10.3 µM	5.07 µM	12.8 µM			2.84 µM	2.47 µM	3.63 µM	1.48 µM	3.13 µM	3.46 µM	20.7 µM
NCc1c(C(N)=O)ncn1Cc1ccccc1	> 100 µM	> 100 µM	> 100 µM	> 100 µM	> 100 µM	> 100 µM	> 100 µM													
COc1ccc2c(CCNC(=O)/C=C/c3ccccc3)c(C(C)=O)[nH]c2c1[N+](=O)[O-]	> 100 µM		44.5 µM			> 100 µM	87.2 µM						> 100 µM							
O=C(N/C(=C\c1ccc(/C=C(\NC(=O)c2ccccc2)c2nc3ccccc3s2)cc1)c1nc2ccccc2s1)c1ccccc1	12.1 µM	32.6 µM	28 µM	25.2 µM	17.8 µM	17 µM	30.9 µM		31 µM											
Cc1ccc(Nc2cc(C)nc(NCCCNc3ccnc4cc(Cl)ccc34)n2)cc1	3.5 µM		2.85 µM	3.29 µM	2.71 µM	3.22 µM	2.81 µM	1.85 µM	4.62 µM		1.46 µM			1.4 µM	1.7 µM	1.81 µM	1.74 µM	1.09 µM	1.75 µM	4.14 µM
FC(F)(F)c1cccc2c(SCCc3n[nH]c(=S)o3)ccnc12	> 100 µM	> 100 µM	> 100 µM	> 100 µM	44.1 µM	89 µM	> 100 µM	97.6 µM	> 100 µM	57 µM	45.1 µM			19.5 µM	42.9 µM	66.6 µM	33.3 µM	44.4 µM	29.3 µM	93.3 µM
CC(NC(=O)C(=O)N/N=C1\C[C@@H](c2ccccc2)Nc2ccccc21)c1ccccc1 (stereo partly drawn)	> 100 µM	> 100 µM	> 100 µM	> 100 µM		> 100 µM	> 100 µM		> 100 µM											
Cc1cnccc1N=Nc1ccc(N(C)C)cc1	72.1 µM	53 µM	> 100 µM	50.9 µM	29.5 µM	53.5 µM	> 100 µM		> 100 µM											> 100 µM
N#Cc1ccc(Oc2cccc(Oc3ccccc3)c2)cc1C#N	> 100 µM	> 100 µM	> 100 µM	> 100 µM	> 100 µM		> 100 µM	> 100 µM	> 100 µM		> 100 µM					> 100 µM				
C=C1CCCC2[C@](C)(CC3=C(O)C(=O)C=C(OC)C3=O)[C@@H](C)CC[C@]12C (stereo partly drawn)	31.3 µM	10.6 µM	27.9 µM	> 100 µM	9.35 µM	16.4 µM	17.7 µM													
O=C(CCSc1ccnc2c(C(F)(F)F)cccc12)N/N=C/c1cc(Cl)c(Cl)cc1Cl	44.5 µM	52.3 µM	43.4 µM	72.4 µM	34.9 µM	> 100 µM	32.5 µM	26.1 µM	64.6 µM	20.9 µM	21.4 µM			19.3 µM	20 µM	33.6 µM	83.5 µM	18.5 µM	22 µM	59.9 µM
O=C(Nc1nc2ccc([N+](=O)[O-])cc2s1)C(=O)C(C(=O)c1ccncc1)C1OC(=O)c2ccccc21 (stereo not drawn)	> 100 µM	> 100 µM	> 100 µM			> 100 µM	> 100 µM		> 100 µM				> 100 µM							
CC(=O)OC1CCC2C(=CCC3C2(C)C(=O)CC2(C)C(C4(C)OC(C(C)C)=CC4=O)C(O)CC32C)C1(C)C (stereo not drawn)	> 10 µM		> 100 µM		56.9 µM		> 10 µM		> 100 µM				72.5 µM							
CS(=O)(=O)N(CCC#N)c1ccc(C=O)cc1	> 100 µM		> 100 µM		> 100 µM	> 100 µM	> 100 µM		> 100 µM				> 100 µM							
Cn1c(=O)c(C(=O)NC(=O)NCCCCCOC(=O)CCCCCCCCCCC(=O)OCCCCCNC(=O)NC(=O)c2cn(Cc3ccccc3)c(=O)n(C)c2=O)cn(Cc2ccccc2)c1=O	> 100 µM	> 100 µM	> 100 µM	> 100 µM	> 100 µM	> 100 µM	> 100 µM		> 100 µM											
CCOC(=O)N1C(c2ccccc2)C=CC(c2ccccc2)N1C(=O)OCC (stereo not drawn)	> 100 µM	> 100 µM	> 100 µM	> 100 µM	> 100 µM	> 100 µM	> 100 µM		> 100 µM				> 100 µM							
